Measurements published in patent publication US9624243B2, “Heterocyclic compounds and methods of their use” (Novartis AG, priority 2012, dated 2017).
pIC50: −log10 of the molar value.

What follows are molecules tested against AT2 receptor (Homo sapiens (Human), UniProt P50052) (assay: AT2 Receptor Binding). Conditions: HEK293 AT2 receptor transient cell membranes, [125I]-CGP42112A.
Procedure: 1. Trypsin-EDTA (for Preparation of 100 mL)
• Dissolve trypsin in 2% EDTA and PBS completely; sterilize the solution by passing through a […] membrane filter; store at 4° C.
2. DMEM Medium (for Preparation of 1 L) • The powder was dissolved into 950 mL of distilled water with gentle stirring until the solution becomes clear. • Add. NaHCO3 1.176 g for DMEM medium. • Adjust pH of medium to 0.2˜0.3 below final working pH using 1 M NaOH or 1 M • HCl. Add slowly with stirring. • Dilute to 1 liter with ddH2O. • Sterilize the medium immediately by filtration. • Store at 4° C.
3. TE Buffer • 20 mM Tris-HCl, pH 7.4, • 5 mM EDTA
4. Binding Assay Buffer • 50 mM Hepes, pH 7.4 • 5 mM MgCl2 • 1 mM CaCl2 • 0.2% BSA
5. Wash Buffer • 50 mM Hepes, pH 7.4 Procedures for HEK293AT2 Receptor Transient Cell Transfection • Cells were plated into 150 mm dish at 50% density for transient transfection. Cells were ready for transfection after overnight incubation (the confluence reaches around 80%). • 75 μL Lipofectamine™2000 diluted in 6.25 mL OptiMEM I Reduced Serum Medium, was mixed gently, and incubated at room temperature for 5 minutes. 50 μg expression plasmid DNA diluted in 6.25 mL OptiMEM I Reduced Serum Medium without serum was mixed gently. • After the 5 minute incubation, the diluted DNA was combined with the diluted Lipofectamine™2000 (total volume is 12.5 mL). The mixture was mixed gently and incubated for 30 minutes at room temperature to allow the DNA-Lipofectamine™2000 complexes to form. • The 12.5 mL DNA-Lipofectamine™2000 complexes were added into the 150 mm dish and mixed gently by rocking the dish back and forth. • The cells were incubated at 37° C. with 5% CO2 for 48 hours. Cells were collected and stored frozen at −80° C. Procedures for HEK293AT2 Receptor Cell Membrane Preparation • Frozen HEK293AT2 receptor (transient transfected) cells were homogenized in ice cold TE buffer for 10s. • The homogenate was centrifuged at 25,000 g for 30 minutes. • The pellet was resuspended in ice cold tissue buffer. • Protein concentrations were determined using Bradford assay method with BSA as standard. • The membrane protein was frozen under −80° C. Compound Preparation
Solutions of all compounds were prepared bymicroplate liquid handling equipment such as Janus or Precision 2000. Compounds, dissolved in DMSO were stored in a Freezer. Compounds were prepared from 30 mM in 100% DMSO.
Step 1: Dose Plate Preparation (96 Well Plate)
• Add the 3 μL [30 mM] compound stock to column 1 on the plate. • Add 15 μL of 100% DMSO to column 1. • Add 10.81 μL of 100% DMSO to column 2-12. • Transfer 5 μL from column 1 into column 2 (half log dilution). • Transfer 5 μL from column 2 into column 3 (half log dilution). • Transfer 5 μL from column 3 into column 4 (half log dilution). • Transfer 5 μL from column 4 into column 5 (half log dilution). • Transfer 5 μL from column 5 into column 6 (half log dilution). • Transfer 5 μL from column 6 into column 7 (half log dilution). • Transfer 5 μL from column 7 into column 8 (half log dilution). • Transfer 5 μL from column 8 into column 9 (half log dilution). • Transfer 5 μL from column 9 into column 10 (half log dilution) • Transfer 5 μL from column 10 into column 11 (half log dilution) • Transfer 5 μL from column 11 into column 12 (half log dilution).
All the compounds were diluted using Precision 2000 microplate liquid handling equipment. The top concentration of compound was 5 mM with 100% DMSO.
Step 2: Working Plate Preparation (96 Well Plate)
• Compounds were diluted 50-fold with buffer. • 49 μL buffer was added to the well of 96 well plate. • 1 μL compound solution from dose plate was transferred to the corresponding well of working plate. • The top concentration of compound was 100 μM with 2% DMSO. Step 3: Assay Plate Preparation (96 Well Plate)
15 μL of compound solution was transferred from each well of working plate to the well of assay plate by Janus.

AT2 receptor, sequence (P50052 whole entry, species assumed): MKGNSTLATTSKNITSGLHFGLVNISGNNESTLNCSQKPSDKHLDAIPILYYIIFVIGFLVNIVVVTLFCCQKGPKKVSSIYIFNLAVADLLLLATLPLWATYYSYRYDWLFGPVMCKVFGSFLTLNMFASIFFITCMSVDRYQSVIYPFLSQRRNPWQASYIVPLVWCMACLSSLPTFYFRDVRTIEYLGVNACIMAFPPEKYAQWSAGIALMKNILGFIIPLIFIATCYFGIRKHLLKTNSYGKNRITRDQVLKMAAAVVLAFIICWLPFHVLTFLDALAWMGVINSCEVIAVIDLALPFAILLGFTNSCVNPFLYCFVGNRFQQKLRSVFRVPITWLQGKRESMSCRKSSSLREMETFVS

SMILES | pIC50
O=C1NCC2(CCN([C@H]3C[C@@H](C(=O)O)N(C(=O)C(c4ccccc4)c4ccccc4)C3)CC2)C1c1ccccc1 (stereo partly drawn) [Compound 65, (2S,4S)-1-(2,2-diphenylacetyl)-4-(3-oxo-4-phenyl-2,8-diazaspiro[4,5]decan-8-yl)pyrrolidine-2-carboxylic acid] | 5.79
O=C(O)[C@@H]1C[C@H](N2CCC3(CC2)C(=O)NC3c2ccccc2)CN1C(=O)C(c1ccccc1)c1ccccc1 (stereo partly drawn) [Compound 75, (2S,4S)-1-(2,2-diphenylacetyl)-4-(1-oxo-3-phenyl-2,7-diazaspiro[3,5]nonan-7-yl)pyrrolidine-2-carboxylic acid] | 5.42
O=C(O)[C@@H]1C[C@H](N2CCC[C@H]3CN(Cc4ccccc4)C[C@H]32)CN1C(=O)C(c1ccccc1)c1ccccc1 [Compound 84] | 7.12
O=C(O)[C@@H]1C[C@H](N2CCC[C@@H]3CN(Cc4ccccc4)C[C@@H]32)CN1C(=O)C(c1ccccc1)c1ccccc1 [Compound 85, (2S,4S)-4-((4aR,7aR)-6-benzoctahydro-1H-pyrrolo[3,4-b]-pyridin-1-yl)-1-(2,2-diphenylacetyl)pyrrolidine-2-carboxylic acid] | 6.99
O=C(O)[C@@H]1C[C@H](N2CC[C@@H](c3ccccc3)C2)CN1C(=O)C(c1ccccc1)c1ccccc1 [Compound 86] | 6.09
O=C(O)[C@@H]1C[C@H](N2CC[C@H](c3ccccc3)C2)CN1C(=O)C(c1ccccc1)c1ccccc1 [Compound 87] | 7.36
CN(CCCCc1ccccc1)[C@H]1C[C@@H](C(=O)O)N(C(=O)C(c2ccccc2)c2ccccc2)C1 [Compound 90, (2S,4S)-1-(2,2-diphenylacetyl)-4-(methyl(4-phenylbutyl)-amino)pyrrolidine-2-carboxylic acid] | 7.19
CN(CCCc1ccc(F)cc1)[C@H]1C[C@@H](C(=O)O)N(C(=O)C(c2ccccc2)c2ccccc2)C1 [Compound 91, (2S,4S)-1-(2,2-diphenylacetyl)-4-((3-(4-fluorophenyl)-propyl)(methyl)amino)pyrrolidine-2-carboxylic acid] | 7.92
COc1ccc(CCCN(C)[C@H]2C[C@@H](C(=O)O)N(C(=O)C(c3ccccc3)c3ccccc3)C2)cc1C [Compound 92, (2S,4S)-1-(2,2-diphenylacetyl)-4-((3-(4-methoxy-3-methylphenyl)propyl)(methyl)amino)pyrrolidine-2-carboxylic acid] | 6.87
CN(CCCc1cccnc1)[C@H]1C[C@@H](C(=O)O)N(C(=O)C(c2ccccc2)c2ccccc2)C1 [Compound 93] | 6.90
O=C(CCc1ccccc1)N[C@H]1C[C@@H](C(=O)O)N(C(=O)C(c2ccccc2)c2ccccc2)C1 [Compound 96, (2S,4S)-1-(2,2-diphenylacetyl)-4-(3-phenylpropanamido)-pyrrolidine-2-carboxylic acid] | 5.65
CN(C(=O)CCc1ccccc1)[C@H]1C[C@@H](C(=O)O)N(C(=O)C(c2ccccc2)c2ccccc2)C1 [Compound 97, (2S,4S)-1-(2,2-diphenylacetyl)-4-(N-methyl-3-phenylpropanamido)pyrrolidine-2-carboxylic acid] | 6.34
CS(=O)(=O)N(CCCc1ccccc1)[C@H]1C[C@@H](C(=O)O)N(C(=O)C(c2ccccc2)c2ccccc2)C1 [Compound 99, (2S,4S)-1-(2,2-diphenylacetyl)-4-(N-(3-phenylpropyl)-methylsulfonamido)pyrrolidine-2-carboxylic acid] | 6.27
O=C(O)[C@@H]1C[C@H](n2nncc2-c2ccccc2)CN1C(=O)C(c1ccccc1)c1ccccc1 [Compound 100, (2S,4S)-1-(2,2-diphenylacetyl)-4-(5-phenyl-1H-1,2,3-triazol-1-yl)pyrrolidine-2-carboxylic acid] | 7.74
O=C(O)[C@@H]1C[C@H](n2nncc2Cc2ccccc2)CN1C(=O)C(c1ccccc1)c1ccccc1 [Compound 101, (2S,4S)-4-(5-benzyl-1H-1,2,3-triazol-1-yl)-1-(2,2-diphenylacetyl)pyrrolidine-2-carboxylic acid] | 6.40
O=C(O)[C@@H]1C[C@H](N2C(=O)COC[C@@H]2Cc2ccccc2)CN1C(=O)C(c1ccccc1)c1ccccc1 [Compound 102, (2S,4S)-4-((S)-3-benzyl-5-oxomorpholino)-1-(2,2-diphenylacetyl)pyrrolidine-2-carboxylic acid] | 6.30
O=C(O)[C@@H]1C[C@H](OCCCc2ccc(F)cc2)CN1C(=O)C(c1ccccc1)c1ccccc1 [Compound 104, (2S,4S)-1-(2,2-diphenylacetyl)-4-(3-(4-fluorophenyl)-propoxy)pyrrolidine-2-carboxylic acid] | 5.88
COc1ccc(C#CCN(C)[C@H]2C[C@@H](C(=O)O)N(C(=O)C(c3ccccc3)c3ccccc3)C2)cc1C [Compound 105, (2S,4S)-1-(2,2-diphenylacetyl)-4-((3-(4-methoxy-3-methylphenyl)prop-2-yn-1-yl)(methyl)amino)pyrrolidine-2-carboxylic acid] | 5.60
O=C(O)[C@@H]1C[C@H](CCCCc2ccccc2)CN1C(=O)C(c1ccccc1)c1ccccc1 [Compound 106, (2S,4S)-1-(2,2-diphenylacetyl)-4-(4-phenylbutyl)-pyrrolidine-2-carboxylic acid] | 6.37
O=C(O)[C@@H]1C[C@H](c2sccc2-c2ccccc2)CN1C(=O)C(c1ccccc1)c1ccccc1 [Compound 107, (2S,4S)-1-(2,2-diphenylacetyl)-4-(3-phenylthiophen-2-yl)-pyrrolidine-2-carboxylic acid] | 6.34
CN(C)S(=O)(=O)NC(=O)[C@@H]1C[C@H](OCCCc2ccccc2)CN1C(=O)C(c1ccccc1)c1ccccc1 [Compound 112, (2S,4S)—N—(N,N-dimethylsulfamoyl)-1-(2,2-diphenylacetyl)-4-(3-phenylpropoxy)pyrrolidine-2-carboxamide] | 6.59
CN(CCCc1ccc(F)cc1)[C@H]1C[C@@H](C(=O)NS(=O)(=O)N(C)C)N(C(=O)C(c2ccccc2)c2ccccc2)C1 [Compound 114, (2S,4S)—N—(N,N-dimethylsulfamoyl)-1-(2,2-diphenylacetyl)-4-((3-(4-fluorophenyl)propyl)(methyl)amino)pyrrolidine-2-carboxylic acid] | 7.77
O=C(O)[C@@H]1C[C@H](N2CCC3(CCOC(=O)N3Cc3ccccc3)C2)CN1C(=O)C(c1ccccc1)c1ccccc1 (stereo partly drawn) [Compound 115] | 6.49
CN(CC#Cc1ccccc1)[C@H]1C[C@@H](C(=O)O)N(C(=O)C(c2ccccc2)c2ccccc2)C1 [Compound 116, (2S,4S)1-(2,2-diphenylacetyl)-4-(methyl(3-phenylprop-2-yn-1-yl)amino)pyrrolidine-2-carboxylic acid] | 6.19
O=C(O)[C@@H]1C[C@H](CS(=O)(=O)Cc2ccccc2)CN1C(=O)C(c1ccccc1)c1ccccc1 [Compound 118, (2S,4S)-4-((benzylsulfonyl)methyl)-1-(diphenylacetyl)-pyrrolidine-2-carboxylic acid] | 6.50
O=C(O)[C@@H]1C[C@H](CS(=O)(=O)c2ccccc2)CN1C(=O)C(c1ccccc1)c1ccccc1 [Compound 119, (2S,4S)-4-((phenylsulfonyl)methyl)-1-(diphenylacetyl)-pyrrolidine-2-carboxylic acid] | 5.58
O=C(O)[C@@H]1C[C@H](CSCCc2ccccc2)CN1C(=O)C(c1ccccc1)c1ccccc1 [Compound 120, (2S,4S)-1-(2,2-diphenylacetyl)-4-((phenethylthio)methyl)pyrrolidine-2-carboxylic acid] | 5.92
